pIC50: −log10 of the molar value. Like-named read-outs stand apart in the source and are kept apart here.
How the values were obtained:
[1] = molecular target: human Nav 1.5 (Homo sapiens (Human), UniProt Q14524); experiment: Nav 1.5 IonWorks Quattro (IWQ) in vitro assay; format: cell-based
Experimental: Nav 1.7 or Nav 1.5 Ion Works Quattro (IWQ) In Vitro Assay
HEK 293 Cells stably transfected with either human Nay 1.7 or human Nay 1.5 were recorded in population patch-clamp mode with the IonWorks® Quattro automated electrophysiology system in accordance with the manufacturer's specifications (Molecular Devices, LLC, Sunnyvale, Calif.). Sodium channel currents were measured in response to a train of depolarizations that induced successively greater inactivation.
Cells were held at −110 mV for three seconds (Nav 1.7) or half a second (Nav 1.5) from a holding voltage of −15 mV, then put through a series of 26 pulses of 150 msec duration to −20 mV at a frequency of 5 Hz. Cells were then left unclamped for a period of 3 to 8 minutes while a single concentration of test compound was added. Cells were then reclamped and put through the same voltage protocol. Current at the end of the 26th pulse to −20 mV was subtracted from the peak current evoked by the 26th pulse to −20 mV to correct for leak current. Percent block was calculated for each concentration in duplicate, and IC50 curves were fitted to percent block as a function of concentration.

[2] = molecular target: human Nav1.7 (Homo sapiens (Human), UniProt Q15858); experiment: Nav 1.7 in vitro PatchXpress (PX) assay; format: cell-based
[3] = in-vitro Nav 1.5 IWQ data, read-out: NAV 1.5 IWQ (IC50)

Chain of human Nav1.7 (Q15858 whole entry): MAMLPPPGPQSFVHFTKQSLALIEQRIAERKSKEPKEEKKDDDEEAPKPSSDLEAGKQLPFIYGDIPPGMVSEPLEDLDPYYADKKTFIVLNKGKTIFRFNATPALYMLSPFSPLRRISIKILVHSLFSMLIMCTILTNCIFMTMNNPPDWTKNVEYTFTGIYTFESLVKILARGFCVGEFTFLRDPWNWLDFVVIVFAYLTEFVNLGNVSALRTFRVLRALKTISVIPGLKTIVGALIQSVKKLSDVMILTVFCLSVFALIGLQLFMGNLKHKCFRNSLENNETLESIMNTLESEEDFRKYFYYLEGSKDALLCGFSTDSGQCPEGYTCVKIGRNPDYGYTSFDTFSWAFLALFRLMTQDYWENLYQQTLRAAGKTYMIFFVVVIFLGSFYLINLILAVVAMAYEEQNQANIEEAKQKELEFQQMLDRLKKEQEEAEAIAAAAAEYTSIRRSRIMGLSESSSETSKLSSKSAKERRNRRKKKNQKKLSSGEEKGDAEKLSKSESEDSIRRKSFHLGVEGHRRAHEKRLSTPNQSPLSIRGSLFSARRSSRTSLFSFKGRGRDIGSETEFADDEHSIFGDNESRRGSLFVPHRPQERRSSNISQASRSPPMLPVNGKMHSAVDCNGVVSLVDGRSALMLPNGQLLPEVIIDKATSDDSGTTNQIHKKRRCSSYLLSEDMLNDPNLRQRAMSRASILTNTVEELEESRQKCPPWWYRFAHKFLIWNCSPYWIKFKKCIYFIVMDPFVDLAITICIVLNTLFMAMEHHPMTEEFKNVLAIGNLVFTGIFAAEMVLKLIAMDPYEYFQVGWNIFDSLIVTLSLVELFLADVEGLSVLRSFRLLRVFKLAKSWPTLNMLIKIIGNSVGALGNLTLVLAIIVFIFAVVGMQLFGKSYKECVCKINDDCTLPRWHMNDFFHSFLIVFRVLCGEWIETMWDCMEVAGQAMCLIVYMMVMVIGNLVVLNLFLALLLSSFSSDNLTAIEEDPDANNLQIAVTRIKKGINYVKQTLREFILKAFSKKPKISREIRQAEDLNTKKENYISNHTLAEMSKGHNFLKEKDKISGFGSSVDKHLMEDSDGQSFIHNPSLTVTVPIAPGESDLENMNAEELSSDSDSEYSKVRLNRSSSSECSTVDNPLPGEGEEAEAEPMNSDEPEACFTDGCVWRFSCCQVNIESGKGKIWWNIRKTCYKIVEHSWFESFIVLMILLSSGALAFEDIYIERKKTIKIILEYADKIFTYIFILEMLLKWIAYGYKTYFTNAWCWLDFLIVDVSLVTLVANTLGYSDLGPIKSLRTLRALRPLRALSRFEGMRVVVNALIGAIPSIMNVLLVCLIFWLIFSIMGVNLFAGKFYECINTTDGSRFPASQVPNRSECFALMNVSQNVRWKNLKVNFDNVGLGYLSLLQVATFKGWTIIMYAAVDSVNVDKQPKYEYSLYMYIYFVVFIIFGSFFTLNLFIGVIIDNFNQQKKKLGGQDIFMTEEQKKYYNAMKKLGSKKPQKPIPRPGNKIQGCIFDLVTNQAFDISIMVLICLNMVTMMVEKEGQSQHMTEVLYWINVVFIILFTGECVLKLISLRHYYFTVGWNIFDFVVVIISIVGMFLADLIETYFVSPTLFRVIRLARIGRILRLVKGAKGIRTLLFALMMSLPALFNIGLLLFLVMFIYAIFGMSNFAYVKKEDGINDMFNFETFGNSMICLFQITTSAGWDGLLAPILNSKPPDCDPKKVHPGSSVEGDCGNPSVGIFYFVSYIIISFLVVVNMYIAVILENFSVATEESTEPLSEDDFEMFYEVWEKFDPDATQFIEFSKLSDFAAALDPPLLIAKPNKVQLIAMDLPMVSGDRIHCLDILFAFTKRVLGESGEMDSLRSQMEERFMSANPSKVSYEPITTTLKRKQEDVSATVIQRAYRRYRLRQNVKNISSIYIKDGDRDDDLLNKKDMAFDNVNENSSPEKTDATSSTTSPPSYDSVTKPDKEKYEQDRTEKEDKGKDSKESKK
Chain of human Nav 1.5 (Q14524 whole entry): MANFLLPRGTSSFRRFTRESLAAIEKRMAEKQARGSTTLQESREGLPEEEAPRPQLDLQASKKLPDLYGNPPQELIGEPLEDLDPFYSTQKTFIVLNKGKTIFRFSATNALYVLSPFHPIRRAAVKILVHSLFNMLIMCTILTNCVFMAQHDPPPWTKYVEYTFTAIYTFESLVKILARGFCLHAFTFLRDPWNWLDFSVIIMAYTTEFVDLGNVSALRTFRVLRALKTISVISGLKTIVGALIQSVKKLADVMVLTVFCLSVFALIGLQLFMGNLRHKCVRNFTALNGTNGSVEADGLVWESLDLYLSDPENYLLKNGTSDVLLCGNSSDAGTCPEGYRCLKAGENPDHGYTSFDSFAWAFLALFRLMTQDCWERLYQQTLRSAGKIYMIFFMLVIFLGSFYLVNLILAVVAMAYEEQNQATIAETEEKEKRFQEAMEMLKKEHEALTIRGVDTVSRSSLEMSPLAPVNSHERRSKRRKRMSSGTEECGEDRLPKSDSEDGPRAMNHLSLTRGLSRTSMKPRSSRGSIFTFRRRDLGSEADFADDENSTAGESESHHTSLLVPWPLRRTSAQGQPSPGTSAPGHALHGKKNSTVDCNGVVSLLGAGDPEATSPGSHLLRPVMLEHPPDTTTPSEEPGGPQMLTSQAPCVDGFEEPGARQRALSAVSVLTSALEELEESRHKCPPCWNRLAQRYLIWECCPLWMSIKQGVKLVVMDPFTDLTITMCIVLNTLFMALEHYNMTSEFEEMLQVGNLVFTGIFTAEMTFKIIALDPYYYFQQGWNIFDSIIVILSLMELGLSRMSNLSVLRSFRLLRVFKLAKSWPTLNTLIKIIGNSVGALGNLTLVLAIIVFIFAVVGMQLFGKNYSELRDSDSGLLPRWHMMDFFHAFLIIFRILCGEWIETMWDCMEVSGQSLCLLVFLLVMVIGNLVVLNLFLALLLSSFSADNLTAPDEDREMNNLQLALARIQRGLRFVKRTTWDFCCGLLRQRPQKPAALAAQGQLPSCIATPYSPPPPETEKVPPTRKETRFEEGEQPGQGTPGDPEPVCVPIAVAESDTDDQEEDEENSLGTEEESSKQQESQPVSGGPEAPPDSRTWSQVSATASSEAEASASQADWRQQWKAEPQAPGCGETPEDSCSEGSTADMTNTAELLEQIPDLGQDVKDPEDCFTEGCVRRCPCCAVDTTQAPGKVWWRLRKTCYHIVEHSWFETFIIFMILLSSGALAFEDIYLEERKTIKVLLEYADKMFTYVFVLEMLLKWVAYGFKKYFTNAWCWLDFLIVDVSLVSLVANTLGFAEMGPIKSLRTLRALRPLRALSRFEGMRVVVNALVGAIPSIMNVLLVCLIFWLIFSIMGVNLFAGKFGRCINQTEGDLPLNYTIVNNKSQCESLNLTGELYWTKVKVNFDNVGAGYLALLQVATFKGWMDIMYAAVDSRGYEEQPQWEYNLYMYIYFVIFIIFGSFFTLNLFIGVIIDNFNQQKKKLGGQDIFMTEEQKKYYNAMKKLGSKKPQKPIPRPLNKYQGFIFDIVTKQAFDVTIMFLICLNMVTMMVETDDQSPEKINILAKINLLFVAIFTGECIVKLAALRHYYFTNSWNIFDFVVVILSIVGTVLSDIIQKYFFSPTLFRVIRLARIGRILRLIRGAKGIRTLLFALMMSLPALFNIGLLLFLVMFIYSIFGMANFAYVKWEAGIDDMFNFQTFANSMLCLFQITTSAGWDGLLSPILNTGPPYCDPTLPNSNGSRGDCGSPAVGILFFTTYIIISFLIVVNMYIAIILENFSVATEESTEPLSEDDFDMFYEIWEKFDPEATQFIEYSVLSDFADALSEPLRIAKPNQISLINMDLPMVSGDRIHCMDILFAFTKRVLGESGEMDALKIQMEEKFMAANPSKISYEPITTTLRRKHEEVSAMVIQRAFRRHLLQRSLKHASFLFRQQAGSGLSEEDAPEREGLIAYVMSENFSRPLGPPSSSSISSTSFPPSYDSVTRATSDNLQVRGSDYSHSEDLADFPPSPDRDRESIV

Compound	pIC50 ([1]; read-out: NAV 1.5 IWQ IC50)	pIC50 [2]	pIC50 [1, 3]	pIC50 ([2]; in-vitro Nav 1.7 PX data)	pIC50 [1]
Cc1cc(C(=O)NS(C)(=O)=O)c(F)cc1-c1cnc(Oc2c(Cl)cccc2Cl)c(Cl)c1 [Example 627, 4-(5-chloro-6-(2,6-dichlorophenoxy)-3-pyridinyl)-2-fluoro-5-methyl-N-(methylsulfonyl)benzamide]	< 5.52	7.16			
COc1cc(C(=O)NS(C)(=O)=O)c(F)cc1-c1cnc(OCc2nc3ccccc3s2)c(Cl)c1 [Example 709, 4-(6-(1,3-benzothiazol-2-ylmethoxy)-5-chloro-3-pyridinyl)-2-fluoro-5-methoxy-N-(methylsulfonyl)benzamide]			< 5.52	7.46	
COc1cc(C(=O)NS(C)(=O)=O)c(F)cc1-c1cnc(O[C@H]2C[C@H]3CC[C@@H]2C3)c(Cl)c1 [Example 703, 4-(6-((1R,2S,4S)-bicyclo[2.2.1]hept-2-yloxy)-5-chloro-3-pyridinyl)-2-fluoro-5-methoxy-N-(methylsulfonyl)benzamide]	< 5.52	7.11			
CC[C@@H](Oc1ncc(-c2cc(F)c(C(=O)NS(C)(=O)=O)cc2Cl)cc1Cl)c1ccc(F)cc1 [Example 596, 5-chloro-4-(5-chloro-6-(((1R)-1-(4-fluorophenyl)propyl)oxy)-3-pyridinyl)-2-fluoro-N-(methylsulfonyl)benzamide, 5-chloro-4-(5-chloro-6-(((1S)-1-(4-fluorophenyl)propyl)oxy)-3-pyridinyl)-2-fluoro-N-(methylsulfonyl)benzamide]	< 5.52	7.06			
Cc1cc(C(=O)NS(C)(=O)=O)c(F)cc1-c1cnc(Oc2ccc(Br)cc2)c(Cl)c1 [Example 609, 4-(6-(4-bromophenoxy)-5-chloro-3-pyridinyl)-2-fluoro-5-methyl-N-(methylsulfonyl)benzamide]	< 5.52	7.11			
COc1cc(C(=O)NS(C)(=O)=O)ccc1-c1cnc(Oc2c(C)cc(Cl)cc2Cl)c(C#N)c1 [Example 689, 4-(5-cyano-6-(2,4-dichloro-6-methylphenoxy)-3-pyridinyl)-3-methoxy-N-(methylsulfonyl)benzamide]	6.00	7.55			
Cc1ccc(Oc2ncc(-c3cc(F)c(C(=O)NS(C)(=O)=O)cc3C)cc2Cl)c(C(C)(C)C)c1 [Example 634, 4-(6-(2-tert-butyl-4-methylphenoxy)-5-chloro-3-pyridinyl)-2-fluoro-5-methyl-N-(methylsulfonyl)benzamide]	< 5.52	7.02			
Cc1cc(C(=O)NS(C)(=O)=O)c(F)cc1-c1cnc(Oc2c(F)cc(F)cc2F)c(Cl)c1 [Example 622, 4-(5-chloro-6-(2,4,6-trifluorophenoxy)-3-pyridinyl)-2-fluoro-5-methyl-N-(methylsulfonyl)benzamide]	< 5.52	7.06			
Cc1cc(C(=O)NS(C)(=O)=O)c(F)cc1-c1cnc(Oc2cc(F)c(Br)cc2Cl)c(Cl)c1 [Example 606, 4-(6-(4-bromo-2-chloro-5-fluorophenoxy)-5-chloro-3-pyridinyl)-2-fluoro-5-methyl-N-(methylsulfonyl)benzamide]	< 5.52	7.14			
Cc1ccc(Oc2ncc(-c3cc(F)c(C(=O)NS(C)(=O)=O)cc3C)cc2Cl)cc1F [Example 623, 4-(5-chloro-6-(3-fluoro-4-methylphenoxy)-3-pyridinyl)-2-fluoro-5-methyl-N-(methylsulfonyl)benzamide]		7.31			5.32
COc1cc(C(=O)NS(C)(=O)=O)c(F)cc1-c1cnc(Oc2ccc(F)c(F)c2F)c(Cl)c1 [Example 701, 4-(5-chloro-6-(2,3,4-trifluorophenoxy)-3-pyridinyl)-2-fluoro-5-methoxy-N-(methylsulfonyl)benzamide]	< 5.52	7.15			
Cc1cc(C(=O)NS(C)(=O)=O)c(F)cc1-c1cnc(O[C@H](C)c2cc(F)c(F)cc2F)c(Cl)c1 [Example 660, 4-(5-chloro-6-((1R)-1-(2,4,5-trifluorophenyl)ethoxy)-3-pyridinyl)-2-fluoro-5-methyl-N-(methylsulfonyl)benzamide, 4-(5-chloro-6-((1S)-1-(2,4,5-trifluorophenyl)ethoxy)-3-pyridinyl)-2-fluoro-5-methyl-N-(methylsulfonyl)benzamide]	5.19	7.03			
Cc1cc(C(=O)NS(C)(=O)=O)c(F)cc1-c1cnc(Oc2ccc(C(C)(C)C)cc2Cl)c(Cl)c1 [Example 611, 4-(6-(4-tert-butyl-2-chlorophenoxy)-5-chloro-3-pyridinyl)-2-fluoro-5-methyl-N-(methylsulfonyl)benzamide]	< 5.52	7.12			
Cc1cc(C(=O)NS(C)(=O)=O)c(F)cc1-c1cnc(Oc2cc(Cl)c(Cl)cc2Cl)c(Cl)c1 [Example 667, 4-(5-chloro-6-(2,4,5-trichlorophenoxy)-3-pyridinyl)-2-fluoro-5-methyl-N-(methylsulfonyl)benzamide]	5.13	7.30			
Cc1cc(C(=O)NS(C)(=O)=O)c(F)cc1-c1cnc(O[C@](C)(c2ccccc2)C(F)(F)F)c(Cl)c1 [Example 587, 4-(5-chloro-6-((1R)-2,2,2-trifluoro-1-methyl-1-phenylethoxy)-3-pyridinyl)-2-fluoro-5-methyl-N-(methylsulfonyl)benzamide, 4-(5-chloro-6-((1S)-2,2,2-trifluoro-1-methyl-1-phenylethoxy)-3-pyridinyl)-2-fluoro-5-methyl-N-(methylsulfonyl)benzamide]	< 5.52	7.09			
Cc1cc(C(=O)NS(C)(=O)=O)c(F)cc1-c1cnc(O[C@H](C)c2nc3ccccc3s2)c(Cl)c1 [Example 647, 4-(6-((1R)-1-(1,3-benzothiazol-2-yl)ethoxy)-5-chloro-3-pyridinyl)-2-fluoro-5-methyl-N-(methylsulfonyl)benzamide, 4-(6-((1S)-1-(1,3-benzothiazol-2-yl)ethoxy)-5-chloro-3-pyridinyl)-2-fluoro-5-methyl-N-(methylsulfonyl)benzamide]	< 5.52	7.12			
Cc1cc(C(=O)NS(C)(=O)=O)c(F)cc1-c1cnc(Oc2c(F)cc(F)cc2Cl)c(Cl)c1 [Example 666, 4-(5-chloro-6-(2-chloro-4,6-difluorophenoxy)-3-pyridinyl)-2-fluoro-5-methyl-N-(methylsulfonyl)benzamide]	5.47	7.30			
Cc1cc(Cl)ccc1COc1ncc(-c2cc(F)c(C(=O)NS(C)(=O)=O)cc2C)cc1Cl [Example 681, 4-(5-chloro-6-((4-chloro-2-methylbenzyl)oxy)-3-pyridinyl)-2-fluoro-5-methyl-N-(methylsulfonyl)benzamide]	< 5.31	7.01			
Cc1cc(C(=O)NS(C)(=O)=O)c(F)cc1-c1cnc(Oc2cc(F)cc(F)c2)c(Cl)c1 [Example 630, 4-(5-chloro-6-(3,5-difluorophenoxy)-3-pyridinyl)-2-fluoro-5-methyl-N-(methylsulfonyl)benzamide]	< 5.52	7.11			
Cc1cc(C(=O)NS(C)(=O)=O)c(F)cc1-c1cnc(Oc2ccc(F)c(F)c2F)c(Cl)c1 [Example 615, 4-(5-chloro-6-(2,3,4-trifluorophenoxy)-3-pyridinyl)-2-fluoro-5-methyl-N-(methylsulfonyl)benzamide]	< 5.52	7.12			
CS(=O)(=O)NC(=O)c1cc(Cl)c(-c2cnc(Oc3cc(F)cc(F)c3F)c(Cl)c2)cc1F [Example 589, 5-chloro-4-(5-chloro-6-(2,3,5-trifluorophenoxy)-3-pyridinyl)-2-fluoro-N-(methylsulfonyl)benzamide]	< 5.52	7.30			
CC(C)[C@@H](Oc1ncc(-c2cc(F)c(C(=O)NS(C)(=O)=O)cc2Cl)cc1Cl)c1ccccc1 [Example 594, 5-chloro-4-(5-chloro-6-(((1R)-2-methyl-1-phenylpropyl)oxy)-3-pyridinyl)-2-fluoro-N-(methylsulfonyl)benzamide, 5-chloro-4-(5-chloro-6-(((1S)-2-methyl-1-phenylpropyl)oxy)-3-pyridinyl)-2-fluoro-N-(methylsulfonyl)benzamide]	< 5.52	7.31			
Cc1cc(C(=O)NS(C)(=O)=O)c(F)cc1-c1cnc(Oc2cc(F)cc(F)c2Cl)c(Cl)c1 [Example 631, 4-(5-chloro-6-(2-chloro-3,5-difluorophenoxy)-3-pyridinyl)-2-fluoro-5-methyl-N-(methylsulfonyl)benzamide]	< 5.52	7.20			
Cc1cc(C(=O)NS(=O)(=O)c2nccs2)c(F)cc1-c1cnc(Oc2c(C)cc(Cl)cc2Cl)c(Cl)c1 [Example 799, 4-(5-chloro-6-(2,4-dichloro-6-methylphenoxy)-3-pyridinyl)-2-fluoro-5-methyl-N-(1,3-thiazol-2-ylsulfonyl)benzamide]			6.17	7.64	
Cc1cc(C(=O)NS(C)(=O)=O)c(F)cc1-c1cnc(Oc2cccc(Br)c2)c(Cl)c1 [Example 607, 4-(6-(3-bromophenoxy)-5-chloro-3-pyridinyl)-2-fluoro-5-methyl-N-(methylsulfonyl)benzamide]	< 5.52	7.17			
Cc1cc(Cl)cc(Cl)c1Oc1ncc(-c2cc(F)c(C(=O)NS(C)(=O)=O)cc2F)cc1Br [Example 575, 4-(5-bromo-6-(2,4-dichloro-6-methylphenoxy)-3-pyridinyl)-2,5-difluoro-N-(methylsulfonyl)benzamide]	< 5.31	7.37			
CS(=O)(=O)NC(=O)c1cc(Cl)c(-c2cnc(Oc3ccc(F)c(F)c3F)c(Cl)c2)cc1F [Example 588, 5-chloro-4-(5-chloro-6-(2,3,4-trifluorophenoxy)-3-pyridinyl)-2-fluoro-N-(methylsulfonyl)benzamide]	< 5.52	7.08			
Cc1cc(C(=O)NS(C)(=O)=O)c(F)cc1-c1cnc(Oc2c(C)ccc3ccccc23)c(Cl)c1 [Example 608, 4-(5-chloro-6-((2-methyl-1-naphthalenyl)oxy)-3-pyridinyl)-2-fluoro-5-methyl-N-(methylsulfonyl)benzamide]	< 5.52	7.32			
